From PMC6429710, “Structure–activity relationships in a series of antiplasmodial thieno[2,3-b]pyridines” (Malaria Journal, 2019)
Read-outs that look alike come from different tables or passages of the source.

How the values were obtained:
HsGSK-3 = HsGSK-3 (Homo sapiens, UniProt P49841); assay: Kinase-Glo Plus assay for inhibition of HsGSK-3; format: biochemical; conditions: 6 µM ATP; mean of three determinations, range in brackets
Description: Kinase reaction mix was transferred to a solid white 384 well plate (NUNC, Thermo Scientific) and kinase reaction was stopped by adding 5 μL RT Kinase-Glo reagent. After 10 min luminescence was measured in an EnVision multilabel plate reader (Perkin Elmer, integration time 0.5 s/well). […] All samples were normalized to a negative control (reaction without kinase). Data points were plotted into Graphpad Prism, normalized to a DMSO control and IC50 values were calculated using nonlinear regression.

PfGSK-3 [1] = target: T1, PfGSK-3 (Plasmodium falciparum, UniProt O77344); format: biochemical; conditions: 15 µM ATP; mean of two determinations, range in brackets; read-out: IC50 [µM], PfGSK-3 (radiometric)
T1 construct: 6xHis; made in house; host or cells: Escherichia coli C41
T1 sequence (O77344 1-440): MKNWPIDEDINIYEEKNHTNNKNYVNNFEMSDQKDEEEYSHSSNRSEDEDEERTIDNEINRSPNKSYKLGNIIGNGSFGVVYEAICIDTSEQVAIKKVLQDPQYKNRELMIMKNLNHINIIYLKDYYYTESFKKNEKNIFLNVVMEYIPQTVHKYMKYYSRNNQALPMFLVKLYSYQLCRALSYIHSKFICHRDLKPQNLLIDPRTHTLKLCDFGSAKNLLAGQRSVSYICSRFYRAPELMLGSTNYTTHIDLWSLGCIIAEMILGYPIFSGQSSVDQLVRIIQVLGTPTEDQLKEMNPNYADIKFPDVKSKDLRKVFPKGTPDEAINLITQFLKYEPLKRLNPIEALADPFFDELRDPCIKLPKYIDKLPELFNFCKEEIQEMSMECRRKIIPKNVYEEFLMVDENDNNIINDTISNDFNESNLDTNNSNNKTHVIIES
Description: Recombinant GST-PfGSK-His was expressed in Rosetta 2 (DE3) cells and purified on cobalt affinity resin as described previously. Recombinant PfGSK-3 ([…]) was assayed with 48 µM GS-1 peptide as a substrate, in 25 mM Tris–HCl pH 7.5, 10 mM MgCl2, 1 mM EGTA, 1 mM EDTA, 0.5 mg/mL BSA, 5 mM DTT, 2 µg/mL heparin, in the presence of 15 µM [γ-^32P] ATP (3000 Ci/mmol; 1 mCi/mL) (Perkin-Elmer, USA) in a final volume of 25 µL. After 30 min incubation at 30 °C, 8 µL aliquots were spotted onto 1 × 1 cm pieces of P81 phosphocellulose paper (Reaction Biology, Malvern, PA, USA) and 20 s later, the filters were washed five times (for at least 5 min each time) in a solution of 10 mL phosphoric acid/L water. Filters were rinsed in acetone and the dried filters and radioactivity was measured by Cherenkov counting. Blank values were subtracted and activities were expressed in percentage of the maximal activity, i.e. in the absence of inhibitors. Controls were performed with appropriate dilutions of dimethylsulfoxide.

[2] = Kinetic solubility by laser nephelometry; format: physicochemical; conditions: aqueous phosphate buffer pH 7.4, 1% DMSO, 25 °C, mean ± standard deviation
Description: Kinetic solubility indicates the solubility of the most rapidly precipitating form. Kinetic solubilities of 1 and 4h were determined by laser nephelometry using the […] nephelometer (BMG LabTech, Ortenberg, Germany) and F-bottom transparent 96-well plates. The instrument uses red laser light (635 nm, 80% intensity), which passes through the 96-well plate and which is scattered by turbid suspensions. Each compound was measured six times at 25 °C by preparing three independent stock solutions in concentrations of 5 to 10 mM in DMSO. From each stock solution two independent dilution series were prepared. Based on preliminary experiments, dilution concentrations were chosen such that at least five to six concentrations below and above the expected point of precipitation were recorded. To the 96-well plate containing 198 μL aqueous phosphate buffer at pH 7.4, 2 μL of each dilution sample in DMSO was added and shaken for 10 s. at 700 rpm (double orbital). […] The pH was adjusted by adding sulfuric acid. First, the plates were scanned without content to quantify the background, which was later subtracted from the obtained values of each individual well. As blank, 2 μL of neat DMSO was added to the phosphate buffer. Close to the point of precipitation, particle concentration can be assumed to be proportional to the intensity of scattered light. […]

PfGSK-3 [3] = target: T1, PfGSK-3; assay: biochemical; format: biochemical
Description: PfGSK-3 was cloned into pOPIN F expression vector [41] using ligation independent cloning (InFusion, Takara Clontech). Expression vector was transformed into Escherichia coli C41 and expression of recombinant PfGSK3-6xHis was induced by incubation with 1 mM IPTG at 16 °C overnight.
Kinase activity was measured using Kinase-Glo Plus Luminescent Kinase Assay (Promega). 20 ng recombinant GSK-3 were incubated for 30 min at 30 °C in the presence of 12 μM GS-1 peptide substrate ([…]pSEDEEE, pS stands for phosphorylated serine, Biaffin GmbH & Co KG/proteinkinase.de) and 6 μM ATP (ultra pure, Promega) in a total volume of 5 μL kinase reaction buffer (40 mM Tris/HCl pH 7.5; 20 mM MgCl2; 0.1 mg/mL BSA). Kinase reaction mix was transferred to a solid white 384 well plate (NUNC, Thermo Scientific) and kinase reaction was stopped by adding 5 μL RT Kinase-Glo reagent. After 10 min luminescence was measured in an EnVision multilabel plate reader (Perkin Elmer, integration time 0.5 s/well). […] All samples were normalized to a negative control (reaction without kinase). Data points were plotted into Graphpad Prism, normalized to a DMSO control and IC50 values were calculated using nonlinear regression.

HsGSK-3, sequence (P49841 whole entry): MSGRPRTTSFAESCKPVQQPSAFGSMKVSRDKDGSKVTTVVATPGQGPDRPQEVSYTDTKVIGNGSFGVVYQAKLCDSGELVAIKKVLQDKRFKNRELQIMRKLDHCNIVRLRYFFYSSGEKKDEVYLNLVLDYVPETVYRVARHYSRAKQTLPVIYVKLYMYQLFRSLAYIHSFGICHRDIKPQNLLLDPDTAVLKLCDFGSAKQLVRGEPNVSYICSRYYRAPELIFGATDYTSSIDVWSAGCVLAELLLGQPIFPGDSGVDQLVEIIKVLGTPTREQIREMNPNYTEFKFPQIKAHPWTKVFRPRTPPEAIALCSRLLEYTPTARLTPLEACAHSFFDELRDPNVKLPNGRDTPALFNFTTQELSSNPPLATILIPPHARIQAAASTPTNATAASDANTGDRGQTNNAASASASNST

CN(C)CCN(C)c1ccc(-c2c(C#N)c(N)nc3sc(C(=O)c4cccc(Cl)c4)c(N)c23)c(Cl)c1 [4h]
IC50 (HsGSK-3): 40.2 µM | IC50 (PfGSK-3 [1]): 0.184 µM | S0 pH 7.4, exp (kinetic solubility) [2]: 4.8 ± 0.9 µM | IC50 (PfGSK-3 [3]; 6 µM ATP, mean of three determinations, range in brackets, read-out: IC50 [µM], PfGSK-3 (Kinase Glo Plus)): 0.72 µM | selectivity index plasmodial versus human GSK-3 (PfGSK-3 [3]; Kinase Glo Plus assay, PfGSK-3 versus HsGSK-3): 56
